# From publication PMC12648285 (JACS Au, 2025)
# Columns and labels:
# A549 cells [1] = test: Anti-proliferative assay, A549 cells; assay type: cell-based; details: 72 h
# A549 cells [2] = test: Determination of reactive oxygen species; assay type: cell-based; details: 16 h, flow cytometry
# GAC (73-598) = test: Intact protein mass spectrometry, covalent modification of GAC; assay type: binding
# A549 cells [3] = test: Determination of intracellular glutamate and glutamine levels; assay type: cell-based; details: 16 h treatment
# GAC^WT and GAC^K320A = test: Western blot of acetylation of GAC WT and GAC K320A; assay type: biochemical; details: 45 min
# TRKA (440-796) [4] = target: T1, TRKA (440-796) (Homo sapiens, UniProt P04629); test: Time-dependent intact protein mass; assay type: binding
# T1 sequence (P04629 440-796): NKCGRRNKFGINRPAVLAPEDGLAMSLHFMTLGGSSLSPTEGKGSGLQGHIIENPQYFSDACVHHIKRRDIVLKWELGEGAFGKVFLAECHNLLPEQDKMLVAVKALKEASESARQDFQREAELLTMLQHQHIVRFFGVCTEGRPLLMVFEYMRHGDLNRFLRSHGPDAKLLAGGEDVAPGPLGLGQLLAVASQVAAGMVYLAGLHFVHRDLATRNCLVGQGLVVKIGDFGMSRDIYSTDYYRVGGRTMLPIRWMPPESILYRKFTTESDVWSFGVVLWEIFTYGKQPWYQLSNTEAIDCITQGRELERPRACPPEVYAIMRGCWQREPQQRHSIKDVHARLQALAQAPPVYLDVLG
# TRKA = TRKA (Homo sapiens, UniProt P04629); test: TRKA kinase biochemical assay
# Sequence of TRKA (P04629 33-796): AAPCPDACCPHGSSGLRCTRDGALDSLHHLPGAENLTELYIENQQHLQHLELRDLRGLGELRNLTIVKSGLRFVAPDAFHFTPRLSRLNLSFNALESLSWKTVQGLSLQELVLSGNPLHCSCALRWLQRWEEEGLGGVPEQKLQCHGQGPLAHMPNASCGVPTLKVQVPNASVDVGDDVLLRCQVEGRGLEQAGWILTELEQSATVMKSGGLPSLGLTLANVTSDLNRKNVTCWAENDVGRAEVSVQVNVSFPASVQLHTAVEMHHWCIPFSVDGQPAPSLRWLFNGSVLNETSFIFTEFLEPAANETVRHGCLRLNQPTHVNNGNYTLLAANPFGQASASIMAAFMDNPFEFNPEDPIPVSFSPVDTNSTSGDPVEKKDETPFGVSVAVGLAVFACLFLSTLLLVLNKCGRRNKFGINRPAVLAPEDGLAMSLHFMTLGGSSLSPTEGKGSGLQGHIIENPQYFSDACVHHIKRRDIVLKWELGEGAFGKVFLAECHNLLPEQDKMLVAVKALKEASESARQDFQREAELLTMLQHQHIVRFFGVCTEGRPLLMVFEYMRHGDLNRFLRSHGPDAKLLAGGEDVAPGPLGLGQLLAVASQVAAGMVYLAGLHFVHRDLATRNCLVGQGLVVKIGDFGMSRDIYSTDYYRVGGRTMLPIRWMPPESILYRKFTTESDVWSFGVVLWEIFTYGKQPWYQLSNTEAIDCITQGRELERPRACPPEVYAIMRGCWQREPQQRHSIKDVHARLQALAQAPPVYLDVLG
# TRKA (440-796) [5] = target: T1, TRKA (440-796); test: Site mapping using LC-MS/MS, TRKA+7; assay type: binding
# TRKB = TRKB (Homo sapiens, UniProt Q16620); test: TRKB kinase biochemical assay
# Sequence of TRKB (Q16620 32-822): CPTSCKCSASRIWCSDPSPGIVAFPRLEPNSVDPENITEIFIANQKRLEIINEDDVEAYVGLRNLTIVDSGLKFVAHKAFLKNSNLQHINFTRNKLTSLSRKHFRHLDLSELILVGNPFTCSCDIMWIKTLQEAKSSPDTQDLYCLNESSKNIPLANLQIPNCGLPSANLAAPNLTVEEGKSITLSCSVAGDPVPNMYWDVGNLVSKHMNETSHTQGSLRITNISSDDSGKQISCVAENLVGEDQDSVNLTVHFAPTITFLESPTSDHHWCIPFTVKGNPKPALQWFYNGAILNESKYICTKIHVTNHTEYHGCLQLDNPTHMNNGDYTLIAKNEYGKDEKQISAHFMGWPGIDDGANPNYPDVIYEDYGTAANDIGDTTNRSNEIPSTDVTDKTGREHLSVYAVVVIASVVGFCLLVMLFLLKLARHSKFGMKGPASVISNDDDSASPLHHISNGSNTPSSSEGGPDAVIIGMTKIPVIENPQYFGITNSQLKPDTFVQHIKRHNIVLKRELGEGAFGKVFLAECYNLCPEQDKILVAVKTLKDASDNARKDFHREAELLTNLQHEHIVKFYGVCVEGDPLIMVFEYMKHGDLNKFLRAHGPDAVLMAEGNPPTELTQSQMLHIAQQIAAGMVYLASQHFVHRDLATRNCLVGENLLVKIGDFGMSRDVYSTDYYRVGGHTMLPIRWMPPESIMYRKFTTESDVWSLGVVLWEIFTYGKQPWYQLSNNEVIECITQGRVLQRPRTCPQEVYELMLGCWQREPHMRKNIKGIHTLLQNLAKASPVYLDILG
# [6] = tested on: p-TRKA and p-AKT in KM12-Luc cells; test: Western blot of TRKA activation and downstream signalling in KM12-Luc cells; assay type: cell-based; details: 6 h
# [7] = target: TRKA kinase domain (440-796) (Homo sapiens, UniProt P04629); test: Intact protein mass spectrometry, covalent labelling of TRKA; assay type: binding; details: intact protein MS, 2 h incubation, 25 °C, compound/protein 10:1
# Sequence of TRKA kinase domain (440-796) (P04629 440-796): as the sequence (P04629 440-796) above
# TRKC = TRKC (Homo sapiens, UniProt Q16288); test: TRKC kinase biochemical assay
# Sequence of TRKC (Q16288 32-839): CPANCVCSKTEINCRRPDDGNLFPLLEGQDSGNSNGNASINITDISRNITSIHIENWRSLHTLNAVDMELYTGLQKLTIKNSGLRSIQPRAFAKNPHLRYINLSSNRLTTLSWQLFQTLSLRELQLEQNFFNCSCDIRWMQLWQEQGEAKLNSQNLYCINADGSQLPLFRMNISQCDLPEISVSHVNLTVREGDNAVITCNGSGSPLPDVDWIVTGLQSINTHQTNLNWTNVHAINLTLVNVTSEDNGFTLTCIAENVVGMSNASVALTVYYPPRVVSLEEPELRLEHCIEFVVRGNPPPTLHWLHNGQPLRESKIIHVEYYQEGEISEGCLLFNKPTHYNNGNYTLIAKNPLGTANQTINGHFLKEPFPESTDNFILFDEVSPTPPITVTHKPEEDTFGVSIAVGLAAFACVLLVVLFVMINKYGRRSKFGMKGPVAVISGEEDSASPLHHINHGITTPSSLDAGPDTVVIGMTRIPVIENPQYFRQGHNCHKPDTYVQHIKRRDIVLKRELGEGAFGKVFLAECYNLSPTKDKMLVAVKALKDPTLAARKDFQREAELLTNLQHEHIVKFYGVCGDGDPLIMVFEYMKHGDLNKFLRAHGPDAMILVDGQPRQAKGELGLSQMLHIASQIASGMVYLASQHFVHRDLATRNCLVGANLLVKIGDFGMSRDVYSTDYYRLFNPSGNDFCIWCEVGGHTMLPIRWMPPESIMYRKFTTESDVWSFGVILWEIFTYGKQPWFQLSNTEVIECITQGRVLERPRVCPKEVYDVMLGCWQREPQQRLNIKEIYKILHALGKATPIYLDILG
# GAC = target: T2, GAC (Macaca mulatta, UniProt F7AIH5); test: Recombinant GAC enzymatic assay; assay type: biochemical
# T2 sequence (F7AIH5 73-598): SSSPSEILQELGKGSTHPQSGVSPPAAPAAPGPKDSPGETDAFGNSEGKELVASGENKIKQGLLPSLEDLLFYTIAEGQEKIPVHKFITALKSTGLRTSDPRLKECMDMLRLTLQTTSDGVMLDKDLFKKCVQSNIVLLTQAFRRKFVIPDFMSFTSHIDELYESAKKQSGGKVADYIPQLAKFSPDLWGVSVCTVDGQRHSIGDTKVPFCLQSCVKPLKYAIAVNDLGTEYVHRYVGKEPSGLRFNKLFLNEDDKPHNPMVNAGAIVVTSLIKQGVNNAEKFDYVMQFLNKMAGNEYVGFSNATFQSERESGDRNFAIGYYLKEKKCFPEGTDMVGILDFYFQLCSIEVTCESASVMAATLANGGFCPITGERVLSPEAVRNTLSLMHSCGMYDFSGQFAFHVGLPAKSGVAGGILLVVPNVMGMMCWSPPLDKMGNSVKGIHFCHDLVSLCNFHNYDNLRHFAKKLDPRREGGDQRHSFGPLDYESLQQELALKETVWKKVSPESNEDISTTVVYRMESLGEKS
# [8] = time-dependent intact protein MS, TRKA
compound,measurement,setting,value
CC(=O)Oc1ccc(CC(=O)Nc2nnc(N[C@@H]3CCN(c4cccnn4)C3)s2)cc1C#N [Compound 16],Cellular activity (A549 antiproliferative),A549 cells [1],enhanced antiproliferative activities
same,Intracellular reactive oxygen species (ROS) level,A549 cells [2],significantly increased
same,Total protein products displaying acetylation,GAC (73-598); MS of GAC-16 after 8 h incubation at 25 °C,71.05%
same,Glutamine-to-glutamate conversion (intracellular GLU/GLN ratio),A549 cells [3],marked reduction
same,Acetylation of wild-type vs Lys320 mutant GAC at low concentrations,GAC^WT and GAC^K320A; ≤2 μM,"selectively acetylated wild-type GAC, with no detectable modification of the Lys320 mutant"
same,Acetylation of wild-type vs Lys320 mutant GAC at higher concentrations,GAC^WT and GAC^K320A; ≥10 μM,emerging acetylation signals in the Lys320 mutant
C#Cc1c(C=O)cccc1CC(=O)Nc1nnc(N[C@@H]2CCN(c3cccnn3)C2)s1 [Compound 14],Cellular activity (A549 antiproliferative),A549 cells [1],limited efficacy
same,Covalent modification of GAC by intact protein MS,"GAC (73-598); 8 h, 25 °C",confirmed covalent modification of GAC
same,Labeling efficiency of GAC,"GAC (73-598); intact protein MS, 8 h, 25 °C, theoretical maximum 50%",~45%
C#Cc1cc(-c2cc(Nc3nc(N[C@@H](C)c4ccc(F)cn4)ncc3Cl)n[nH]2)ccc1C=O [Compound 7],Ki,TRKA (440-796) [4],800 nM
same,k inact (inactivation rate),TRKA (440-796) [4]; [8],0.0578 min^–1
same,k inact/K I,TRKA (440-796) [4]; [8],1.20 × 10^3 M^–1·s^–1
same,IC50,TRKA,11.5 nM
same,Covalent binding site identified in TRKA,TRKA (440-796) [5],Lys544
same,Modification rate of Lys544,"TRKA (440-796) [5]; TRKA + compound, 25 °C, 2 h",95%
same,IC50,TRKB,1.04 nM
same,Phosphorylation of TRKA and downstream AKT,[6],efficiently suppress the phosphorylation of TRKA as well as its downstream AKT
same,Total binding rate of TRKA modified by compound,[7],99.2%
same,IC50,TRKC,1.9 nM
C#Cc1cc(CC(=O)Nc2nnc(N[C@@H]3CCN(c4cccnn4)C3)s2)ccc1C=O [Compound 15],Cellular activity (A549 antiproliferative),A549 cells [1],limited efficacy
same,Covalent modification of GAC by intact protein MS,"GAC (73-598); 8 h, 25 °C",confirmed covalent modification of GAC
same,GAC enzymatic inhibition compared to the reversible inhibitor 13,GAC,significantly enhanced GAC enzymatic inhibition
